# Test results: PubChem BioAssay AID463199 (Broad Institute, 2010)
# The source made the active and inactive calls.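 Rule for the calls: active = AC50, the dose giving half-maximal effect, exceeds a fixed cutoff for a compound that rescues yeast growth under heat; inactive = the rest, inconclusive results apart.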
# System: S. cerevisiae Burl-1 ts mutant growth, BacTiter-Glo, 38.5C 24 h
# Test: restored growth of temperature-sensitive Burl-1 yeast – whole organism, S. cerevisiae, Burl-1 ts mutant, luminescence, counter-screen for SUMOylation pathway inhibitor project, dose response (AID 463199)
row,Structure (SMILES),AC50
1,COC(=O)[C@H](Cc1ccccc1)NC(=O)NC(C)CCc1ccccc1 (some centres undefined),> 42 µM (inactive)
2,COc1ccc(S(=O)(=O)NC(C)C(=O)NCc2ccccn2)cc1Cl (centres undefined),> 42 µM (inactive)
3,Cc1cccc(/C=N/NC(=O)Cc2cccs2)c1,> 42 µM (inactive)
4,COC/C=C/C1=CC2=CC(=O)C(C)(OC(=O)c3cnc4ccccc4n3)C(=O)C2=CN1CCOC (centres undefined),> 42 µM (inactive)
5,COc1ccc(NC(=O)CCC(=O)Nc2nnc(C(F)(F)F)s2)c(OC)c1,> 42 µM (inactive)
6,Cc1cccc(NC(=S)NC(=O)/C=C/c2ccco2)c1,> 42 µM (inactive)
7,CC1(C)CNc2cc([N+](=O)[O-])ccc2S1,> 42 µM (inactive)
8,Cn1nc(C(C)(C)C)c([N+](=O)[O-])c1C(=O)Nc1ccccc1,> 42 µM (inactive)
9,CCn1ncc(Br)c1C(=O)Nc1ccc(OC(F)(F)F)cc1,> 42 µM (inactive)
10,CN(C)C(=O)c1cc(C(=O)c2ccc(C(F)(F)F)cc2F)c[nH]1,> 42 µM (inactive)
11,C=C(C)C(=O)OC1(C(F)(F)F)Oc2cc(C)ccc2NC1=O (centres undefined),> 42 µM (inactive)
12,O=C(COc1ccc(-n2cnnn2)cc1)NCCc1ccc(F)cc1,> 42 µM (inactive)
13,COc1ccc(CCN2CC(C(=O)N(C)CC(=O)Nc3cccc(F)c3)CC2=O)cc1OC (centres undefined),> 42 µM (inactive)
14,COC(=O)c1ccccc1NC(=O)c1cnn2c(C)cc(C)nc12,> 42 µM (inactive)
15,Oc1ccc(Br)cc1/C=N/n1c(COc2ccccc2)n[nH]c1=S,> 42 µM (inactive)
16,CCc1cccc(C)c1NC(=O)CSc1nnc(-c2cc3cc(Br)ccc3o2)n1CC,> 42 µM (inactive)
17,Cc1cc(NC(=O)CCC(=O)N(c2cccnc2)C(C(=O)NC2CCCC2)c2ccccc2)no1 (centres undefined),> 42 µM (inactive)
18,CCOCCCNCc1ccc(OCc2ccc(F)cc2)c(OC)c1,> 42 µM (inactive)
19,O=C(Nc1nnc(COc2ccc(F)cc2)s1)c1cccs1,> 42 µM (inactive)
20,Cc1cc(NC(=O)c2ccc(N3C(=O)CCC3=O)cc2)no1,> 42 µM (inactive)
21,CN(C)C(=O)CNC(=O)C1CCCCC1,> 42 µM (inactive)
22,COc1ccccc1CC(=O)N1CCN(S(=O)(=O)c2ccccc2)CC1,> 42 µM (inactive)
23,CCC(=O)Nc1nc(CC(=O)Nc2ccccc2OC)cs1,> 42 µM (inactive)
24,CCn1c(SCC(=O)Nc2nc(-c3ccccc3)cs2)nnc1-c1ccccc1,> 42 µM (inactive)
25,Cc1ccnc(NC(c2cccnc2)c2ccc3cccnc3c2O)c1 (centres undefined),> 42 µM (inactive)

row,Structure (SMILES),AC50
1,CCN(C(=S)NCCOC)c1cccc2ccccc12,> 42 µM (inactive)
2,O=[N+]([O-])c1c(NCCCO)cc(Sc2nc3ccccc3s2)c2nonc12,> 42 µM (inactive)
3,CC(=O)c1ccc(NC(=O)CSc2nnc(-c3ccco3)o2)cc1,> 42 µM (inactive)
4,CCOc1c(Cl)cc(CNCC(O)c2ccccc2)cc1OC (centres undefined),> 42 µM (inactive)
5,Nc1nc(CSc2nnnn2-c2ccc(Cl)cc2)nc(N2CCOCC2)n1,> 42 µM (inactive)
6,CN(C)CCOC(c1ccc(Cl)cc1)c1ccccn1 (centres undefined),> 42 µM (inactive)
7,O=C(CSc1nc(O)cc(=O)n1-c1ccccc1)NC1CCCCC1,> 42 µM (inactive)
8,CCOC(=O)c1cnc2c(C)c(Cl)ccc2c1N1CCOCC1,> 42 µM (inactive)
9,Cc1ccc(NC(=O)CN(C)C(=O)c2cccc(Br)c2)cc1,> 42 µM (inactive)
10,O=C(COc1ccc(F)cc1Cl)N(Cc1nnc(-c2ccccc2Cl)o1)C1CC1,> 42 µM (inactive)
11,N#C/C(=C\Nc1ccc2c(c1)OCCO2)c1nc2ccccc2[nH]1,> 42 µM (inactive)
12,Cn1c(SCC(=O)N/N=C/c2ccc([N+](=O)[O-])s2)nnc1-c1ccc(Cl)cc1,> 42 µM (inactive)
13,CCOC(=O)CS(=O)(=O)c1ccc2ccccc2c1,> 42 µM (inactive)
14,CS(=O)(=O)c1ccc(Cl)c(C(=O)O)c1,> 42 µM (inactive)
15,Cc1cc(C)n(C(=O)c2ccccc2[N+](=O)[O-])n1,> 42 µM (inactive)
16,CCOc1ccc(N(C(C)C(=O)NC(C)CC)S(C)(=O)=O)cc1 (centres undefined),> 42 µM (inactive)
17,Cc1ccc(S(=O)(=O)Cc2ccc(C(=O)N3CCN(c4ccccn4)CC3)o2)cc1,> 42 µM (inactive)
18,N#CC(C#N)=C1C=CC=CN1/C(=C\c1ccccc1Cl)C(=O)c1ccccc1,> 42 µM (inactive)
19,CC1=CC(=O)C(C(C)C)=C/C1=N/OS(=O)(=O)c1ccccc1,> 50 µM (inactive)
20,CSc1ccc(CN2CCN(S(=O)(=O)Cc3ccccc3)CC2)cc1,> 42 µM (inactive)
21,CCOC(=O)c1cc([N+](=O)[O-])c([N+](=O)[O-])cc1NC(C)=O,> 42 µM (inactive)
22,Cc1cc(OCC(=O)NCC2CCC(C(=O)O)CC2)c2c(C)c(C)c(=O)oc2c1 (centres undefined),> 42 µM (inactive)
23,CN(Cc1cccnc1)Cc1cn[nH]c1-c1ccc(-c2ccccc2)cc1,> 42 µM (inactive)
24,CCCCNC(=O)N1CCC(CCC(=O)N(C)Cc2ccccc2)CC1,> 42 µM (inactive)
